#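 These data come from cells grown in 96-well plates and exposed to compound for 48 hours at five concentrations. At the GI50, growth is halved.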 Active and inactive are the calls of the source. Cut-off read from the data, not from the text of the source: active = GI50 up to about 1.1 µM and inactive = higher.
# How the values were obtained:
# Test in all cases: NCI anticancer screen, dose series, 48 h
# 786-0 = test system: 786-0
# A498 = test system: A498
# A549 = test system: A549
# ACHN = test system: ACHN
# CAKI-1 = test system: CAKI-1
# CCRF-CEM = test system: CCRF-CEM
# DMS-114 = test system: DMS-114
# EKVX = test system: EKVX
# HCC 2998 = test system: HCC 2998
# HCT-116 = test system: HCT-116
# HCT-15 = test system: HCT-15
# HL-60 = test system: HL-60
# HOP-18 = test system: HOP-18
# HOP-62 = test system: HOP-62
# HOP-92 = test system: HOP-92
# HT-29 = test system: HT-29
# IGROV-1 = test system: IGROV-1
# K562 = test system: K562
# KM-20L2 = test system: KM-20L2
# KM12 = test system: KM12
# LOX IMVI = test system: LOX IMVI
# LXFL 529 = test system: LXFL 529
# M14 = test system: M14
# M19-MEL = test system: M19-MEL
# MOLT-4 = test system: MOLT-4
# Malme-3M = test system: Malme-3M
# NCI-H226 = test system: NCI-H226
# NCI-H23 = test system: NCI-H23
# NCI-H460 = test system: NCI-H460
# OVCAR-3 = test system: OVCAR-3
# OVCAR-4 = test system: OVCAR-4
# OVCAR-5 = test system: OVCAR-5
# OVCAR-8 = test system: OVCAR-8
# RPMI-8226 = test system: RPMI-8226
# RXF 393 = test system: RXF 393
# RXF 631 = test system: RXF 631
# SF-268 = test system: SF-268
# SF-295 = test system: SF-295
# SF-539 = test system: SF-539
# SK-MEL-28 = test system: SK-MEL-28
# SK-MEL-2 = test system: SK-MEL-2
# SN12C = test system: SN12C
# SNB-19 = test system: SNB-19
# SNB-75 = test system: SNB-75
# SNB-78 = test system: SNB-78
# SR = test system: SR
# SW-620 = test system: SW-620
# TK-10 = test system: TK-10
# U-251 = test system: U-251
# UACC-257 = test system: UACC-257
# UACC-62 = test system: UACC-62
# UO-31 = test system: UO-31
# XF498 = test system: XF498
# DLD-1 = test system: DLD-1
# DMS-273 = test system: DMS-273
# NCI-H522 = test system: NCI-H522
# SK-MEL-5 = test system: SK-MEL-5
# SK-OV-3 = test system: SK-OV-3
compound,measurement,setting,value
COC12CC(O)=C(C(C)=O)C(=O)C1(C)c1c(OC(C)=O)c(C)c(O)c(C(C)=O)c1O2 (stereo not given),GI50,786-0,18.9 µM (inactive)
same,GI50,A498,17.3 µM (inactive)
same,GI50,A549,9.44 µM (inactive)
same,GI50,ACHN,12.3 µM (inactive)
same,GI50,CAKI-1,15.7 µM (inactive)
same,GI50,CCRF-CEM,8.41 µM (inactive)
same,GI50,DMS-114,21.3 µM (inactive)
same,GI50,EKVX,31 µM (inactive)
same,GI50,HCC 2998,18.3 µM (inactive)
same,GI50,HCT-116,21 µM (inactive)
same,GI50,HCT-15,13.6 µM
same,GI50,HL-60,15.8 µM (inactive)
same,GI50,HOP-18,5.11 µM (inactive)
same,GI50,HOP-62,22.8 µM (inactive)
same,GI50,HOP-92,18.4 µM (inactive)
same,GI50,HT-29,20.5 µM (inactive)
same,GI50,IGROV-1,7.89 µM (inactive)
same,GI50,K562,16.9 µM (inactive)
same,GI50,KM-20L2,16.7 µM (inactive)
same,GI50,KM12,12 µM (inactive)
same,GI50,LOX IMVI,10.2 µM (inactive)
same,GI50,LXFL 529,14.3 µM (inactive)
same,GI50,M14,22.5 µM (inactive)
same,GI50,M19-MEL,23.2 µM (inactive)
same,GI50,MOLT-4,18.6 µM (inactive)
same,GI50,Malme-3M,17.9 µM (inactive)
same,GI50,NCI-H226,13.8 µM (inactive)
same,GI50,NCI-H23,4.86 µM (inactive)
same,GI50,NCI-H460,13.2 µM (inactive)
same,GI50,OVCAR-3,14.1 µM (inactive)
same,GI50,OVCAR-4,18.7 µM (inactive)
same,GI50,OVCAR-5,31.9 µM (inactive)
same,GI50,OVCAR-8,10.8 µM (inactive)
same,GI50,RPMI-8226,7.71 µM (inactive)
same,GI50,RXF 393,14.7 µM (inactive)
same,GI50,RXF 631,21.2 µM (inactive)
same,GI50,SF-268,23.6 µM (inactive)
same,GI50,SF-295,8.09 µM (inactive)
same,GI50,SF-539,21.6 µM (inactive)
same,GI50,SK-MEL-28,16 µM (inactive)
same,GI50,SK-MEL-2,19 µM (inactive)
same,GI50,SN12C,11.6 µM (inactive)
same,GI50,SNB-19,4.98 µM (inactive)
same,GI50,SNB-75,16 µM (inactive)
same,GI50,SNB-78,27.7 µM (inactive)
same,GI50,SR,18.5 µM (inactive)
same,GI50,SW-620,22.7 µM (inactive)
same,GI50,TK-10,25.4 µM (inactive)
same,GI50,U-251,9.25 µM (inactive)
same,GI50,UACC-257,23.6 µM (inactive)
same,GI50,UACC-62,4.98 µM (inactive)
same,GI50,UO-31,4.35 µM (inactive)
same,GI50,XF498,14.8 µM (inactive)
CCOC(=O)c1ncoc1[C@H]1COC(C)(C)O1,GI50,A549,> 100 µM (inactive)
same,GI50,ACHN,> 100 µM (inactive)
same,GI50,CAKI-1,> 100 µM (inactive)
same,GI50,CCRF-CEM,> 100 µM (inactive)
same,GI50,DLD-1,> 100 µM (inactive)
same,GI50,DMS-114,> 100 µM (inactive)
same,GI50,DMS-273,> 100 µM (inactive)
same,GI50,EKVX,> 100 µM (inactive)
same,GI50,HCC 2998,> 100 µM (inactive)
same,GI50,HCT-116,> 100 µM (inactive)
same,GI50,HCT-15,> 100 µM
same,GI50,HL-60,> 100 µM (inactive)
same,GI50,HOP-18,> 100 µM (inactive)
same,GI50,HOP-62,> 100 µM (inactive)
same,GI50,HT-29,> 100 µM (inactive)
same,GI50,IGROV-1,> 100 µM (inactive)
same,GI50,K562,> 100 µM (inactive)
same,GI50,KM-20L2,> 100 µM (inactive)
same,GI50,LOX IMVI,> 100 µM (inactive)
same,GI50,LXFL 529,> 100 µM (inactive)
same,GI50,M14,> 100 µM (inactive)
same,GI50,M19-MEL,> 100 µM (inactive)
same,GI50,MOLT-4,> 100 µM (inactive)
same,GI50,Malme-3M,> 100 µM (inactive)
same,GI50,NCI-H226,> 100 µM (inactive)
same,GI50,NCI-H23,> 100 µM (inactive)
same,GI50,NCI-H460,> 100 µM (inactive)
same,GI50,NCI-H522,> 100 µM (inactive)
same,GI50,OVCAR-3,> 100 µM (inactive)
same,GI50,OVCAR-4,> 100 µM (inactive)
same,GI50,OVCAR-5,> 100 µM (inactive)
same,GI50,OVCAR-8,> 100 µM (inactive)
same,GI50,RPMI-8226,> 100 µM (inactive)
same,GI50,RXF 393,> 100 µM (inactive)
same,GI50,RXF 631,> 100 µM (inactive)
same,GI50,SF-268,> 100 µM (inactive)
same,GI50,SF-295,> 100 µM (inactive)
same,GI50,SF-539,> 100 µM (inactive)
same,GI50,SK-MEL-2,> 100 µM (inactive)
same,GI50,SK-MEL-5,> 100 µM (inactive)
same,GI50,SK-OV-3,> 100 µM (inactive)
same,GI50,SN12C,> 100 µM (inactive)
same,GI50,SNB-19,> 100 µM (inactive)
same,GI50,SNB-75,> 100 µM (inactive)
same,GI50,SNB-78,> 100 µM (inactive)
same,GI50,SR,> 100 µM (inactive)
same,GI50,SW-620,> 100 µM (inactive)
same,GI50,TK-10,> 100 µM (inactive)
same,GI50,U-251,> 100 µM (inactive)
same,GI50,UACC-257,> 100 µM (inactive)
same,GI50,UACC-62,> 100 µM (inactive)
same,GI50,UO-31,> 100 µM (inactive)

# From ChEMBL document CHEMBL1201862, “PubChem BioAssay data set” (2004)
